This is an account of results in patent US8765722B2 (priority 2009, dated 2014).

The experiment relates to human hepatoma Huh-7 cell line harboring a HCV replicon. In words: microbe, parasite or virus in culture. Type of experiment: cell-based. Particulars: for EC50 / inhibition at 2 µM: Hepatitis C virus; for EC50: Huh-7; for inhibition at 2 µM: Huh-7, 72 h, read-out: % inhibition at 2 μM.

For the molecule “5-(3,3-Dimethyl-but-1-ynyl)-3-[[trans-4-(dimethyl-phosphinoyloxy)-cyclobutyl]-cis-4-methyl-cyclohexanecarbonyl)-amino]-thiophene-2-carboxylic acid [Compound 17]”, the “% inhibition at 2 μM” value worked out at 99.5%. Consider `CC(C)(C)C#Cc1cc(N(C(=O)[C@H]2CC[C@H](C)CC2)[C@H]2CC[C@H](OP(C)(C)=O)CC2)c(C(=O)O)s1` [Compound 1, 5-(3,3-Dimethyl-but-1-ynyl)-3-[[trans-4-(dimethyl-phosphinoyloxy)-cyclohexyl]-(trans-4-methyl-cyclohexanecarbonyl)-amino]-thiophene-2-carboxylic acid], for which the EC50 is no more than 500 nM and the inhibition at 2 µM is 99.8%. For `CCP(=O)(CC)O[C@H]1CC[C@H](N(c2cc(C#CC(C)(C)C)sc2C(=O)O)C(=O)[C@H]2CC[C@H](C)CC2)CC1` [Compound 2, 3-[[trans-4-(Diethyl-phosphinoyloxy)-cyclohexyl]-(trans-4-methyl-cyclohexanecarbonyl)-amino]-5-(3,3-dimethyl-but-1-ynyl)-thiophene-2-carboxylic acid] the same measures were no more than 500 nM and 99.8%.

As for `CC(C)(C)C#Cc1cc(N(C(=O)[C@H]2CC[C@H](C)CC2)[C@H]2CC[C@H](OP(C)(=O)c3ccccc3)CC2)c(C(=O)O)s1` (stereo partly drawn) [Compound 3, 5-(3,3-Dimethyl-but-1-ynyl)-3-{(trans-4-methyl-cyclohexanecarbonyl)-[trans-4-(methyl-phenyl-phosphinoyloxy)-cyclohexyl]-amino}-thiophene-2-carboxylic acid], the EC50 was no more than 500 nM and the inhibition at 2 µM was found to be 99.6%.

For `CC(C)(C)C#Cc1cc(N(C(=O)[C@H]2CC[C@H](C)CC2)[C@H]2CC[C@H](OP(=O)(c3ccccc3)c3ccccc3)CC2)c(C(=O)O)s1` [Compound 4, 5-(3,3-Dimethyl-but-1-ynyl)-3-[[trans-4-(diphenyl-phosphinoyloxy)-cyclohexyl]-(trans-4-methyl-cyclohexanecarbonyl)-amino]-thiophene-2-carboxylic acid], the inhibition at 2 µM came to 94.7%.

Regarding `CC(C)(C)C#Cc1cc(N(C(=O)[C@H]2CC[C@H](C)CC2)[C@H]2CC[C@@H](OP(C)(C)=O)CC2)c(C(=O)O)s1` [Compound 5, 5-(3,3-Dimethyl-but-1-ynyl)-3-[[cis-4-(dimethyl-phosphinoyloxy)-cyclohexyl]-(trans-4-methyl-cyclohexanecarbonyl)-amino]-thiophene-2-carboxylic acid], the 50% effective concentration (EC50) was no more than 500 nM and the inhibition at 2 µM is 100%.

On to `CC(C)(C)C#Cc1cc(N(C(=O)[C@H]2CC[C@H](C(F)(F)F)CC2)[C@H]2CC[C@H](OP(C)(C)=O)CC2)c(C(=O)O)s1` [Compound 6, 5-(3,3-Dimethyl-but-1-ynyl)-3-[[trans-4-(dimethyl-phosphinoyloxy)-cyclohexyl]-(trans-4-trifluoromethyl-cyclohexanecarbonyl)-amino]-thiophene-2-carboxylic acid], for which the inhibition at 2 µM was 93.2%.

As to `CP(C)(=O)O[C@H]1CC[C@H](N(c2cc(-c3ccc(NC(=O)c4cscn4)cc3)sc2C(=O)O)C(=O)[C@H]2CC[C@H](C)CC2)CC1` [Compound 7, 3-[[trans-4-(Dimethyl-phosphinoyloxy)-cyclohexyl]-(trans-4-methyl-cyclohexanecarbonyl)-amino]-5-{4-[(thiazole-4-carbonyl)-amino]-phenyl}-thiophene-2-carboxylic acid], the EC50 is no more than 500 nM and the inhibition at 2 µM is 99.8%. As for `CP(C)(=O)O[C@H]1CC[C@H](N(c2cc(-c3ccc(-c4cc5ncccn5n4)cc3)sc2C(=O)O)C(=O)[C@H]2CC[C@H](C)CC2)CC1` [Compound 8], the concentration giving a half-maximal response (EC50) was no more than 500 nM and the inhibition at 2 µM was 99.8%. As to `COP1(=O)CCC(NC2CCC(N(c3cc(C#CC(C)(C)C)sc3C(=O)O)C(=O)[C@H]3CC[C@H](C)CC3)CC2)CC1` (stereo partly drawn) [Compound 9, 5-(3,3-Dimethyl-but-1-ynyl)-3-[[4-(1-methoxy-1-oxo-1λ^5-phosphinan-4-ylamino)-cyclohexyl]-(trans-4-methyl-cyclohexanecarbonyl)-amino]-thiophene-2-carboxylic acid], the EC50 is no more than 500 nM and the inhibition at 2 µM came to 99.9%. As for `COP1(=O)CCC(N(c2cc(C#CC(C)(C)C)sc2C(=O)O)C(=O)[C@H]2CC[C@H](C)CC2)CC1` (stereo partly drawn) [Compound 11, 5-(3,3-Dimethyl-but-1-ynyl)-3-[(1-methoxy-1-oxo-1 λ^5phosphinan-4-yl)-(trans-4-methyl-cyclohexanecarbonyl)-amino]-thiophene-2-carboxylic acid], the EC50 is no more than 500 nM and the inhibition at 2 µM turned out to be 99.8%. For `CC(C)(C)C#Cc1cc(N(C(=O)[C@H]2CC[C@H](C)CC2)C2CCP(=O)(O)CC2)c(C(=O)O)s1` (stereo partly drawn) [Compound 12, 5-(3,3-Dimethyl-but-1-ynyl)-3[(1-hydroxy-1-oxo-1 λ^5phosphinan-4-yl)-(trans-4-methyl-cyclohexanecarbonyl)-amino]-thiophene-2-carboxylic acid], the inhibition at 2 µM stood at 98.2%. For the molecule `CCOP(C)(=O)C1(O)CCC(N(c2cc(C#CC(C)(C)C)sc2C(=O)O)C(=O)[C@H]2CC[C@H](C)CC2)CC1` (stereo partly drawn) [Compound 13, 5-(3,3-dimethylbut-1-ynyl)-3-((1r,4r)-N-(4-ethoxy(methyl)phosphoryl)-4-hydroxycyclohexyl)-(trans-4-methylcyclohexanecarboxamido)thiophene-2-carboxylic acid], the EC50 is no more than 500 nM and the inhibition at 2 µM turned out to be 99.8%. For `CCOP(C)(=O)C1(OC)CCC(N(c2cc(C#CC(C)(C)C)sc2C(=O)O)C(=O)[C@H]2CC[C@H](C)CC2)CC1` (stereo partly shown) [Compound 14], in that order: no more than 500 nM and 99.8%. For `CC(C)(C)C#Cc1cc(N(CCOP(C)(C)=O)C(=O)[C@H]2CC[C@H](C)CC2)c(C(=O)O)s1` [Compound 15, 5-(3,3-Dimethyl-but-1-ynyl)-3-[[2-(dimethyl-phosphinoyloxy)-ethyl]-(trans-4-methyl-cyclohexanecarbonyl)-amino]-thiophene-2-carboxylic acid] the same measures were no more than 500 nM and 98.9%. For `CCP(=O)(CC)OCCN(c1cc(C#CC(C)(C)C)sc1C(=O)O)C(=O)[C@H]1CC[C@H](C)CC1` [Compound 16, 3-[[2-(Diethyl-phosphinoyloxy)-ethyl]-(trans-4-methyl-cyclohexanecarbonyl)-amino]-5-(3,3-dimethyl-but-1-ynyl)-thiophene-2-carboxylic acid], in that order: no more than 500 nM and 99.5%.

Take `CCOP(C)(=O)CCN(c1cc(C#CC(C)(C)C)sc1C(=O)O)C(=O)[C@H]1CC[C@H](C)CC1` (stereo partly shown) [Compound 18, 5-(3,3-Dimethyl-but-1-ynyl)-3-[[2-(ethoxy-methyl-phosphinoyl)-ethyl]-(4-methyl-cyclohexanecarbonyl)-amino]thiophene-2-carboxy-lic acid]: the half-maximal effective concentration (EC50) is no more than 500 nM and the inhibition at 2 µM came to 98.8%. For `CC(C)(C)C#Cc1cc(N(CCP(C)(=O)O)C(=O)[C@H]2CC[C@H](C)CC2)c(C(=O)O)s1` [Compound 19, 5-(3,3-dimethyl-but-1-ynyl)-3-[[2-(hydroxy-methyl-phosphinoyl)-ethyl]-(4-methyl-cyclohexanecarbonyl)-amino]-thiophene-2-carboxylic acid] the same measures were no more than 500 nM and 94.2%. In the case of `CCOP(C)(=O)Cc1ccc(-c2cc(N(C(=O)[C@H]3CC[C@H](C)CC3)C3CCC4(CC3)OCCO4)c(C(=O)O)s2)cc1` (stereo partly shown) [Compound 20, 3-[(1,4-Dioxa-spiro[4.5]dec-8-yl)-(4-methyl-cyclohexanecarbonyl)-amino]-5-[4-(ethoxy-methyl-phosphinoylmethyl)-phenyl]-thiophene-2-carboxylic acid], the inhibition at 2 µM was 56.3%. The same measure, in the same setting: the value for `CCOP(C)(=O)Cc1ccc(-c2cc(N(C(=O)[C@H]3CC[C@H](C)CC3)[C@H]3CC[C@H](O)CC3)c(C(=O)O)s2)cc1` (stereo partly shown) [Compound 21] was 79.2%; that for `CP(=O)(O)Cc1ccc(-c2cc(N(C(=O)[C@H]3CC[C@H](C)CC3)[C@H]3CC[C@H](O)CC3)c(C(=O)O)s2)cc1` [Compound 22] was 12.3%. `CC(C)(C#Cc1cc(N(C(=O)[C@H]2CC[C@H](C)CC2)[C@H]2CC[C@H](O)CC2)c(C(=O)O)s1)CCOP(C)(C)=O` [Compound 23] showed a concentration giving a half-maximal response (EC50) of no more than 500 nM. Consider `CCOP(=O)(CCNC1CCC(N(c2cc(C#CC(C)(C)C)sc2C(=O)O)C(=O)[C@H]2CC[C@H](C)CC2)CC1)OCC` (stereo partly shown) [Compound 24, 3-(1,4-N-(4-(2-(diethoxyphosphoryl)ethylamino)cyclohexyl)-4-methylcyclohexanecarboxamido)-5-(3,3-dimethylbut-1-ynyl)thiophene-2-carboxylic acid], for which the EC50 was no more than 500 nM.

In general, % inhibition refers to the share of the control response that was lost under treatment. Low values mean little suppression, high ones strong suppression. As usually defined, the EC50 is the midpoint of the concentration-response curve. In general, inhibition refers to the drop in the measured response relative to a control, in per cent.
